Laboratory results published in patent US9480695B2, “Methods for inducing orexin neurons and agent for treating narcolepsy or eating disorder” (THE UNIVERSITY OF TOKYO, priority 2011, dated 2016).

Columns and labels:
Assay type in all cases: cell-based
[1] = test system: Mouse ES cells (J1 strain); test: Induction of Hcrt expression in neural differentiation from mouse ES cells, SDIA differentiation culture system, RT-PCR; conditions: for Expression of Hcrt with changed time of addition: 1.0 mM, addition time varied, FIG. 3; for Expression of an orexin gene (Hcrt): added from initiation of differentiation culturing at 0.2 and 1.0 mM, cells collected on 10th day, FIG. 2
Procedure: Mouse ES cells (J1 strain) which had been maintained in a medium for an ES cell [DMEM (Wako) added with 15% FBS (Biowest), 1 mM sodium pyruvate (Invitrogen), […] (Invitrogen), 2 mM L-glutamine (Invitrogen), 1 mM non essential amino acid (Invitrogen), 50 U/ml penicillin/50 μg/ml streptomycin (Invitrogen), 2000 U leukemia inhibitory factor (Chemicon, CA)] were seeded on a 10 cm culture dish so that the cell count became 1×10^5 cells per culture dish on which PA6 stromal cells had been seeded in advance, and differentiation induction was performed in a medium for neural differentiation [Glasgow MEM (Invitrogen) added with 10% KSR (Invitrogen), […] (Invitrogen), 1 mM non essential amino acid (Invitrogen), 50 U/ml penicillin/50 μg/ml streptomycin (Invitrogen)] for 10 days. On 4th and 7th days of differentiation culturing, the medium was exchanged. In addition, from 4th day of differentiation culturing, 5 nM recombinant human BMP4 (Wako) was added (FIG. 1). On 10th day of differentiation culturing, cells were collected and pelletized by a centrifugation operation to remove the culture medium. Thereafter, the pellets were immediately frozen in liquid nitrogen and stored at −80° C. until use.
The total RNA was extracted from the collected cells using RNeasy plus Mini Kit (QIAGEN). Then, a reverse transcription reaction was performed in a reaction liquid containing 1 μg of the total RNA, and Oligo (dT) using SuperScript III First Strand Synthesis System (Invitrogen) to synthesize a cDNA.
A PCR reaction was performed on a 10 μl scale, 1 U of LA-Taq DNA Polymerase (Takara) was added to 0.5 μl of a cDNA, 5 μl of 2×GC Buffer I, each 200 μM of dNTP, 1.5 mM MgCl2, and each primer having a final concentration of 0.2 μM, thermal denaturation was performed at 95° C. for 3 minutes, and the reaction was performed under the condition of (30 seconds at 95° C., 30 seconds at 55° C., and 30 seconds at 72° C.)×35 cycles (20 cycles in the case of Actb). The primers used are shown below.
Each PCR product was electrophoresed on a 2% agarose gel, stained with ethidium bromide, and a band was observed by UV irradiation.

[2] = test system: Mouse ES cells (J1 strain); test: Hcrt expression in mouse ES cells, SFEB/gfCDM differentiation culture system, RT-PCR; conditions: 1.0 mM from 7th day of differentiation culturing; cells collected on 25th day; FIG. 5
Procedure: Mouse ES cells (J1 strain) which had been maintained in a medium for an ES cell were seeded on a 96-well low adhering round-bottom culture dish (Nunc) so that the cell count became 10,000 cells per well, and cultured with gfCDM [IMDM/F12 (Invitrogen) added with 5 mg/ml BSA (SIGMA), 450 μM Monothioglycerol (Wako), 1× chemically defined lipid concentrate (Invitrogen), 50 U/ml penicillin/50 μg/ml streptomycin] for 7 days. The cells were cultured in 150 μl of a medium per well. On 7th day of differentiation culturing, the medium was exchanged with a DFK medium [DMEM/F12 (Invitrogen) added with 7 g/1 glucose, 10% KSR, 50 U/ml penicillin/50 μg/ml streptomycin], and on 10th day, half the amount of the medium was exchanged with a DFNB medium [7 g/1 glucose, 1×N2 (Wako), 1×B27 (Invitrogen)] containing 10 ng/ml CNTF. On 13th day of culturing, cells were detached with 0.05% trypsin/EDTA, seeded on a culture dish (Falcon) which had been treated with poly-D-lysine/laminin so that the cell count became 4.8×10^6 cells per 10 cm culture dish, and cultured in a DFNB medium containing 10% FBS, 10 ng/ml CNTF, 50 ng/ml BDNF and 50 ng/ml NT3. The medium was exchanged every 3 days. On 25th day of differentiation culturing, cells were collected and pelletized by a centrifugation operation to remove the culture medium. Thereafter, the pellets were immediately frozen in liquid nitrogen, and stored at −80° C. until use.
The analysis was performed by the same method as that of Example 1.

[3] = test system: human iPS cell strain 201B7; test: Hcrt expression with ManNAc plus Sirt inhibitor and Ogt inhibitor, neural differentiation from human iPS cell, RT-PCR; conditions: ManNAc 1.0 mM from 0th day, EX-527 50 nM and/or BADGP 5 mM on 14th day, collected 20th day; FIG. 10
Procedure: A human iPS cell strain 201B7 (HSP0001) was obtained from Riken BioResource Center via National BioResource Project (MEXT, Japan). The human iPS cell was maintained on a feeder layer of a mitomycin C-treated STO/Neo resistant/LIF (SNL) feeder cell in a primate ES medium (ReproCELL) complemented with 5 ng/mL recombinant human bFGF (Wako). The human iPS cell was co-cultured with PA6 for 20 days, for differentiation induction into a nerve with a SIDA and BMP4 system. From 7th day, 5 nM BMP4 was complemented. A detailed protocol of differentiation induction into a nerve cell is shown in the lower column of FIG. 11. From the initiation of differentiation culturing (0th day), ManNAc was added to a neural differentiation medium so that the concentration became 1.0 mM, and on 7th, 10th and 14th days of differentiation culturing, the medium was exchanged. In addition, from 7th day of differentiation culturing, 5 nM recombinant human BMP4 (Wako) was added. On 14th day of differentiation culturing, EX-527 (SIGMA-ALDRICH) was added to a neural differentiation medium so that the concentration became 50 nM, or BADGP (SIGMA-ALDRICH) was added to a neural differentiation medium so that the concentration became 5 mM, and on 20th day of differentiation culturing, cells were collected and subjected to RT-PCR. The conditions of RT-PCR are the same as those of Example 1.

[4] = test system: Mouse ES cells (J1 strain); test: Hcrt expression with ManNAc plus Sirt inhibitor or Ogt inhibitor, neural differentiation from mouse ES cell, RT-PCR; conditions: ManNAc 1.0 mM from 0th day, EX-527 50 nM on 7th day, collected 10th day; FIG. 8
Procedure: According to the same manner as that described in Example 1, mouse ES cells (J1 strain) were cultured for 10 days for differentiation induction into a nerve cell. A protocol of inducing differentiation into a nerve cell is shown in the upper column of FIG. 11. From the initiation of differentiation culturing (0th day), ManNAc was added to a neural differentiation medium so that the concentration became 1.0 mM, and the medium was exchanged on 4th and 7th days of differentiation culturing. In addition, from 4th day of differentiation culturing, 5 nM recombinant human BMP4 (Wako) was added. On 7th day of differentiation culturing, EX-527 (SIGMA-ALDRICH) was added to a neural differentiation medium so that the concentration became 50 nM or BADGP (SIGMA-ALDRICH) was added to a neural differentiation medium so that the concentration became 1 or 5 mM, and on 10th day of differentiation culturing, cells were collected and subjected to RT-PCR. The conditions of RT-PCR are the same as those of Example 1.

## CC(=O)N[C@H]1[C@H]([C@H](O)[C@H](O)CO)OC(O)(C(=O)O)C[C@@H]1O (stereo partly shown) [Neu5Ac, N-acetylneuraminic acid]
[1]
  Expression of Hcrt with changed time of addition: observed only in a ManNAc-added section
  Expression of an orexin gene (Hcrt): recognized only in a ManNAc-added section
[2]
  Expression of Hcrt: expression of Hcrt was recognized

## CC(=O)N[C@H]1C(O)O[C@H](CO)[C@@H](O)[C@@H]1O (stereo partly drawn) [GlcNAc, N-acetyl-D-glucosamine]
[1]
  Expression of Hcrt with changed time of addition: observed only in a ManNAc-added section
  Expression of an orexin gene (Hcrt): recognized only in a ManNAc-added section

## NC(=O)C1CCCc2c1[nH]c1ccc(Cl)cc21 (stereo not shown) [EX-527, 6-chloro-2,3,4,9-tetrahydro-1H-carbazole-1-carboxamide, reference compound]
[3]
  Expression of an orexin gene (Hcrt): recognized in a ManNAc-added section and an EX-527-added section to the same extent
[4]
  Expression of an orexin gene (Hcrt): expression of Hcrt was recognized
